Data from patent publication US20250057740A1, “Stable Stannous Oral Care Product” (Colgate-Palmolive Company, priority 2018, published 2025).
Each block holds one molecule with its values, some of them ahead of it.

Experiments:
[1] = Stability of stannous ions over 35 days at 60° C. (FIG. 3)
Method: Stability of stannous ions is assessed over a period of 35 days.

[2] = in water; cited from earlier work
[3] = aqueous Sn (II) with the named additive, 35 days
Method: Stability of Sn (II) in aqueous solutions, and the ability of various additives to affect this stability, is assessed.

oxidative stability of stannous ([1]; SnF2 in the presence of the named additive): no oxidative stability is observed
SMILES: O=P([O-])([O-])OP(=O)([O-])[O-].[Na+].[Na+].[Na+].[Na+] [TSPP, tetrasodium pyrophosphate]

SMILES: O.O.O.O.O=P([O-])([O-])[O-].O=P([O-])([O-])[O-].[Zn+2].[Zn+2].[Zn+2] [Zinc phosphate, zinc phosphate]
Ksp [2]: ~10^−35 | prevention of the stannous-to-stannic oxidation [3]: positive impact

SMILES: O=P(O)(O)O [phosphoric acid]
stannous oxidized ([1]; stannous fluoride in the presence of the named additive): 8-9%

SMILES: [F][Sn][F] [stannous fluoride, reference compound]
stannous oxidized ([1]; stannous fluoride alone): ~80%
